Tests used:
Format in all cases: cell-based
Candida albicans = assay: in vitro antifungal activity, minimum inhibitory concentration (MIC), Candida albicans
Source text: (§1) The antifungal activity of two exemplary phosphocholines prepared using the method of the invention, i.e., (1) synthetic 1,22-Bis-[2-(trimethylammonium)ethylphosphatyl] docosane obtained using the stepwise synthetic route and, (2) synthetic 1,22-Bis-[2-(trimethylammonium)ethyl-phosphatyl] docosane obtained using the one-pot one step route, as well as the antifungal activity of (3) the natural product isolated from Irbachia alata identified as 1,22-Bis-[2-(trimethylammonium)ethyl-phosphatyl] docosane (see International Application filed Oct. 8, 1993 was determined in vitro using three fungal cultures--Candida albicans (CA), Cryptococcus neoformans (CN), and Aspergillus fumigatus (CF). The method used to determine in vitro antifungal activity is described in McGinnis, M. R., Laboratory Handbook of Medical Mycology, Academic Press, New York, London, p 412-416 (1980); and Drouget, E.; Dupont, B.; Improvisi, L.; Vivian, M. A.; and Tortorano, A. M.; "Disc agar difusion and microplate automatized techniques for in vitro evaluation of antifungal agents on yeast and sporulated pathogenic fungi" in In Vitro and In Vivo Evaluation of Antifungal Agents, Eds. Iwata, K. and Vanden Bossche, H., Elsevier Science Publishers, New York, Oxford, p 303 (1986). The minimum inhibitory concentration (MIC) for each is summarized in Table I. Partial inhibition of the fungus of between 25% to 75% was also measured. A description of the partial inhibition measurement can be found in R. L. Stiller, et al, The Journal of Infectious Diseases, 147, No 6 (1983).

Aspergillus fumigatus [1] = assay: in vitro antifungal activity, minimum inhibitory concentration (MIC), Aspergillus fumigatus
Source text: as §1

Cryptococcus neoformans = assay: in vitro antifungal activity, minimum inhibitory concentration (MIC), Cryptococcus neoformans
Source text: as §1

Aspergillus fumigatus [2] = assay: partial inhibition of the fungus, Aspergillus fumigatus; conditions: in vitro, partial inhibition of between 25% to 75%
Source text: as §1, with “The minimum inhibitory concentration (MIC) for each is summarized in Table I. Partial inhibition of the fungus of between 25% to 75% was also measured. A description of the partial inhibition measurement can be found in R. L. Stiller, et al, The Journal of Infectious Diseases, 147, No 6 (1983).” left out

| Compound | MIC (Candida albicans) [µg/mL] | MIC (Aspergillus fumigatus [1]) [µg/mL] | MIC CN (Cryptococcus neoformans) [µg/mL] | Partial inhibition AF (Aspergillus fumigatus [2]) [µg/mL] | MIC CA (Candida albicans) [µg/mL] | MIC AF (Aspergillus fumigatus [1]) [µg/mL] |
| --- | --- | --- | --- | --- | --- | --- |
| C[N+](C)(C)CCOP(=O)([O-])OCCCCCCCCCCCCCCCCCCCCCCOP(=O)([O-])OCC[N+](C)(C)C [1,22-Bis [2-(trimethylammonium)ethylphosphatyl] docosane] | 1.25 | 0.08 | – | – | – | – |
| C[N+](C)(C)CCOP(=O)([O-])OCCCCCCCCCCCCCCCCCCCCCCOP(=O)([O-])OCC[N+](C)(C)C [Synthetic 1,22-Bis[2-trimethyl-ammonium)ethyl phosphatyl] do] [1,22-Bis [2-(trimethylammonium)ethylphosphatyl] docosane] | – | – | 0.08 | 0.02 | – | – |
| C[N+](C)(C)CCOP(=O)([O-])OCCCCCCCCCCCCCCCCCCCCCCOP(=O)([O-])OCC[N+](C)(C)C [Isolated Natural Product 1,22-Bis[2[(trimethyl ammonium)ethy] [1,22-Bis-[2-(trimethylammonium)ethyl-phosphatyl] docosane] | – | – | < 0.04 | – | 1.25 | 0.08 |
| C[N+](C)(C)CCOP(=O)([O-])OCCCCCCCCCCCCCCCCCCCCCCOP(=O)([O-])OCC[N+](C)(C)C [Synthetic 1,22-Bis[2-(trimethyl-ammonium)ethyl phosphatyl] d] [1,22-Bis [2-(trimethylammonium)ethylphosphatyl] docosane] | – | – | < 0.1 | 0.1 | 0.8 | < 0.1 |
